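48-hour exposure; five concentrations; linearly interpolated endpoints. TGI: concentration producing complete growth inhibition.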
Key:
Assay in all cases: DTP human tumour cell line panel, 48 h
786-0 renal = test system: 786-0 renal
CCRF-CEM leukemia = test system: CCRF-CEM leukemia
HCC-2998 colon = test system: HCC-2998 colon
HS 578T breast = test system: HS 578T breast
NCI-H460 lung = test system: NCI-H460 lung
OVCAR-3 ovarian = test system: OVCAR-3 ovarian
SK-MEL-28 melanoma = test system: SK-MEL-28 melanoma
SNB-19 CNS = test system: SNB-19 CNS
SNB-75 CNS = test system: SNB-75 CNS
UO-31 renal = test system: UO-31 renal

Structure (SMILES)	TGI (786-0 renal) [µM]	TGI (CCRF-CEM leukemia) [µM]	TGI (HCC-2998 colon) [µM]	TGI (HS 578T breast) [µM]	TGI (NCI-H460 lung) [µM]	TGI (OVCAR-3 ovarian) [µM]	TGI (SK-MEL-28 melanoma) [µM]	TGI (SNB-19 CNS) [µM]	TGI (SNB-75 CNS) [µM]	TGI (UO-31 renal) [µM]
CCOC(=O)c1[nH]n(-c2ccccc2)c(=O)c1C=NC(=S)C(N)=S	38.2	> 100	> 100	> 100	> 100	> 100	> 100	> 100	91.4	42.2
COc1cc(OC)c(NC2=NCCO2)cc1Cl	90	> 100	71.1	> 100	45.9	> 100	> 100	> 100	> 100	> 100
Nc1nc(SCc2ccccc2[N+](=O)[O-])c2[nH]cnc2n1	> 100	> 94.5	97.4	24.7	> 76.1	> 100	> 100	> 100	> 70.4	> 100
CCN(CC)CCNC(=O)c1cc2cc(NC(=O)c3cc4cc(NC(=O)c5cc6cc([N+](=O)[O-])ccc6[nH]5)ccc4[nH]3)ccc2[nH]1	> 100	67.3	> 100	> 100	> 100	> 100	> 100	> 100	> 100	> 100
CC(Nc1cc(=O)n(C)c(=O)[nH]1)c1ccccc1 (stereo not given)	> 100	> 100	> 100	> 100	> 100	> 100	> 100	> 100	> 100	> 100
CC1(C)N=C(/C(C#N)=[N+](/[O-])C(=O)c2ccccc2)C(C)(C)N1O	> 100	> 100	> 100	> 100	> 100	> 100	> 100	> 100	> 100	> 100
CCC(=O)n1c(=O)n(-c2ccc([N+](=O)[O-])cc2)c(=O)n1C(=O)CC	> 100	> 100	> 100	> 100	> 100	> 100	> 100	> 100	> 100	> 100
CCCCCCCCCCOC1C(C(C)OCCCN(C)C)OC2OC3(CCCCC3)OC21 (stereo not given)	30.9	25.4	29.3	35.8	22.7	29.1	25.5	25.5	20.1	31.7
CC(C(O)c1ccccc1)[N+](=O)[O-] (stereo not given)	> 100	> 100	30.5	98.7	> 100	17.3	41.5	66	> 100	20.6
COC(=O)C(Cc1ccccc1)NC(=O)C(CCCN=C(N)N)NC(=O)OCc1ccccc1 (stereo not given)	> 100	> 100	> 100	> 100	> 100	> 100	> 100	> 100	> 100	> 100
CC1=NN(c2cccc(Cl)c2)C2(C1)SCC(=O)N2c1nc2ccccc2s1 (stereo not given)	56.1	62.6	38.5	> 100	58.8	58.9	> 100	> 100	43.5	57.4
O=C(O)C1(CC(CCCN2CCCCC2)c2ccccc2)CCCC1 (stereo not given)	> 100	> 100	> 100	> 100	> 100	> 100	> 100	> 100	> 100	> 100
O=C(Nc1ccc(Cl)cc1)c1cc(S(=O)(=O)NC2=NC(c3ccccc3)c3cc(Cl)ccc3N2)c(SSc2cc(Cl)c(C(=O)Nc3ccc(Cl)cc3)cc2S(=O)(=O)NC2=NC(c3ccccc3)c3cc(Cl)ccc3N2)cc1Cl (stereo not given)	> 100	> 40.1	> 100	> 100	> 100	> 100	> 100	> 100	> 100	> 100
CN(C)Cc1cc(C(=O)/C=C/c2c(F)cccc2Cl)cc(CN(C)C)c1O	19.5	24.1	27	50.2	11.8	24.6	31.9	61.5	21.8	18.7
CN1CCN(CCCCNc2cc3c4ccccc4c(NCCCCN4CCN(C)CC4)cc3c3ccccc23)CC1	3.48	3.07	3.29	5.65	3.2	8.5	29	12.5	7.8	11.8
Nc1ccc(S(=O)(=O)c2ccc(N=[N+]([O-])c3ccc(S(=O)(=O)c4ccc(N)cc4)cc3)cc2)cc1	60.3	> 100	> 100	> 74.7	> 100	> 56	> 100	> 72.3	37.1	> 100
